From patent publication US20100135992A1, “Prolongation of Survival of an Allograft by Inhibiting Complement Activity” (Alexion Pharmaceuticals, Inc., priority 2006, published 2010)

Tests used:
[1] = tested on: C3H heart allografts in presensitized BALB/c recipients; assay: C3H heart allograft survival and histology in skin-presensitized BALB/c recipients (Examples 1-2); assay type: in vivo, mouse; conditions: FIG. 2A
Source text: Rejection was defined as complete necrosis of the skin grafts.
Specimens were then embedded in paraffin, and sectioned for H&E staining. The microscopic sections were examined in a blinded fashion for severity of rejection by a pathologist. Criteria for graft rejection included the presence of vasculitis, thrombosis, hemorrhage and lymphocyte infiltration. These changes were scored as: 0, no change; 1, minimum change; 2, mild change; 3, moderate change; or 4, marked change.

[2] = tested on: C3H heart allografts in presensitized BALB/c recipients; assay: Immunoperoxidase staining of heart allografts in presensitized mouse recipients at necropsy; assay type: in vivo; set-up: key: 0, negative; 1+, equivocal; 2+, weak; 3+, moderate; 4+, intense; conditions: heart allograft, POD 3
Source text: Immunohistochemistry Four micrometer sections were cut from tissue samples embedded in Tissue-Tek O.C.T gel (Optimum Cutting Temperature, Skura Finetek, Torrance, Calif.) mounted on gelatin-coated glass microscope slides and stained by a standard indirect avidin-biotin immunoperoxidase staining method using an Elite Vcctastain ABC kit (Vector Laboratories Inc., Burlingame, Calif.). Specimens were stained for CD4^+ and CD8^+ cells with biotin-conjugated rat anti-mouse CD4 mAb (clone YTS 191.1.2, Cedarlane Laboratories Ltd., Hornby, Ontario, Canada) and biotin-conjugated rat anti-mouse CD8 mAb (clone 53-6.7, Pharmingen, Franklin Lakes, N.J.), respectively. Intragraft monocyte/macrophage infiltration was detected by staining with biotin-conjugated rat anti-mouse Mac-1 mAb (Cedarlane Laboratories Ltd., Hornby, Ontario, Canada). Mouse IgG and IgM deposition in gratis was detected using biotin-conjugated goat anti-mouse-IgG and goat anti-mouse-IgM (Cedarlane). For identification of complement deposition, sections were serially incubated with goat anti-C3 or anti-C5 polyclonal Abs (Quidel, San Diego, Calif.), biotinylated rabbit anti-goat IgG (Vector Laboratories), and HRP-conjugated-streptavidin (Zymed Laboratories, South San Francisco, Calif.). Slides were washed with phosphate-buffered saline between steps, and examined under light microscopy. Negative controls were performed by omitting the primary antibodies. The immunostaining was scored in five high-power fields of each section, and five independent experiments were performed. The sections of immunoperoxidase staining were graded from 0 to 4+ according to the staining intensity: 0, negative; 1+, equivocal; 2+, weak staining; 3+, moderate staining; and 4+, very intensive staining.

[3] = tested on: terminal complement activity; assay: Complement hemolytic assay of recipient mouse sera (heart model); assay type: in vivo; conditions: POD3, presensitized heart recipients, FIG. 3
Description: Complement Hemolytic Assay The purified anti-C5 mAb was serially diluted twofold (175-0.1 μg/ml) in GVB^2+ buffer (gelatin Veronal-buffered saline: 0.1% gelatin, 141 mM NaCl, 0.5 mM MgCl2, 0.15 mM CaCl2, and 1.8 mM sodium barbital) and added in triplicate (50 μl/well) to a 96-well plate. BALB/c mouse serum was diluted to 40% v/v with GVB^2+ buffer and added ([…]) to the rows of the same 96-well plate such that the final concentration of BALB/c mouse serum in each well was 20%. The plate was then incubated at room temperature for approximately 30 min while chicken erythrocytes were prepared. Chicken erythrocytes were washed 5×1 ml with GVB^2+ buffer and resuspended to a final concentration of 5×10^7/ml in GVB^2+. Four milliliters of the chicken erythrocytes were sensitized by adding anti-chicken RBC polyclonal antibody (Intercell Technologies, Hopewell, N.J., 0.1% v/v) and the cells were incubated at 4° C. for 15 min with frequent vortexing. The cells were then washed 2×1 ml with GVB^2+ and resuspended to a final volume of 2.4 ml in GVB^2+. […] The plate was read at OD 415 nm using a microplate reader and the percentage of hemolysis was determined using this formula: […]
In the current study, terminal complement activity was measured by assessing the ability of recipient mouse sera to lyse antibody presensitized chicken erythrocytes and was compared at the same time-point (POD3).

[4] = tested on: circulating anti-donor IgG and IgM antibodies; assay: Flow cytometry of circulating anti-donor antibodies (heart model); assay type: in vivo, mouse; conditions: POD3, presensitized heart recipients, FIG. 4A
Description: Flow Cytometry The circulating anti-donor specific IgG and IgM antibodies were evaluated in the recipient serum by FACScan flow cytometry (Becton Dickinson, Mountain View, Calif.). Glotz et al., (1993); Tyan et al. (1994). Briefly, C3H mouse splenocytes were isolated and incubated at 37° C. for 30 minutes with serum from naive control and experimental groups. To stain for total IgG, IgG1, IgG2a, IgG2b and IgM, the cells were washed and incubated with FITC-conjugated goat antibody specific for the Fc portion of mouse IgG or with phycoerythrin-conjugated goat antibody specific for the μ-chain of mouse IgM (Jackson ImmunoResearch Laboratories, West Grove, Pa.), or with FITC-conjugated goat anti-mouse IgG1 (CALTAG Laboratories, Burlingame, Calif.), or with FITC-conjugated goat anti-mouse IgG2a (CALTAG), or with FITC-conjugated goat anti-mouse IgG2b (CALTAG). After 1 hour of staining at 4° C., the cells were washed with PBS, resuspended at 5×10^6/mL, and analyzed by flow cytometry for mean channel fluorescence intensity, which represents the antibody-binding reactivity.

[5] = tested on: C3H heart allografts in presensitized BALB/c mice; assay: Heart allograft survival, accelerated rejection in presensitized model (Example 4); assay type: in vivo, mouse; conditions: presensitized recipients
Source text: In these experiments, the presensitization was brought about by prior transplantation of a skin graft. In general, presensitization can occur not only as a result of having received an earlier allograft, but can also be caused by having received multiple blood transfusions or in women who have been pregnant. Besides such presensitization methods, allografts with an ABO mismatch will be rapidly attacked and rejected because of preformed antibodies to the ABO antigens unless steps are taken to prevent such an attack.
(§1) This model is designed to mimic presensitized transplantation in humans, especially in relation to accelerated humoral rejection. Recipient mice were split into eight groups of six to eight mice each. The treatments were as follow.
Group 3″ (BB5.1 alone)—mice were administered the anti-mouse complement monoclonal antibody BB5.1 at a dose of 40 mg/kg body weight delivered intraperitoneally on a daily basis beginning at day −1 and continuing until the endpoint.
Group 4″ (cyclophosphamide alone)—mice were administered cyclophosphamide intravenously at a dose of 40 mg/kg body weight on each of days 0 and 1.
Group 6″ (BB5.1 plus cyclophosphamide)—mice were administered BB5.1 intraperitoneally at a dose of 40 mg/kg body weight on a daily basis beginning at day −1 and continuing until the endpoint. […]

[6] = tested on: C3H heart allografts in presensitized BALB/c mice; assay: Histological changes of heart allografts at necropsy (Example 4); assay type: in vivo, mouse; conditions: endpoint, score 0 normal to 4 marked change
Source text: as §1

[7] = tested on: C3H kidney allografts in presensitized BALB/c recipients; conditions: for nephrotoxicity: kidney allograft model development
Source text: Animals Male adult C3H (H-2^k) mice and BALB/c (H-2^d mice (Jackson Labs, Bar Harbor, Me.) weighing 25-30 g were chosen as donors and recipients, respectively. Animals were housed under conventional conditions at the Animal Care Facility, The University of Western Ontario, and were cared for in accordance with the guidelines established by the Canadian Council on Animal Care.
Skin Presensitization Full-thickness skin grafts taken from C3H donors were cut into 1×1 cm^2 pieces and transplanted onto the backs of BALB/c recipient mice. Rejection was defined as complete necrosis of the skin grafts.
The donor ureter was also sutured to the recipient bladder using 10-0 sutures. The native kidneys were removed immediately after grafting. Graft rejection leading to host death was used as the endpoint of rejection for kidney transplants.
Measurement of Serum Creatinine Serum samples were obtained at study endpoint (time of rejection or POD100) after kidney transplantation. Serum creatinine levels were quantitated in 10 μL samples using the Sigma Diagnostics (Sigma, St. Louis, Mo.) procedure, which measures creatinine by a kinetic modification of the Jaffe reaction (Junge et al., 2004). Graft Histology At necropsy, tissue samples were processed for hematoxylin and eosin (H&E) staining (Wang et al, JI 2003) and evaluated for vasculitis, thrombosis, hemorrhage and lymphocyte infiltration; changes were scored as: 0, none; 1, minimal; 2, mild; 3, moderate or 4, marked compared to normal tissues.

[8] = tested on: C3H kidney allografts in presensitized BALB/c recipients; assay: Immunoperoxidase staining of kidney allografts in presensitized mouse recipients at necropsy; assay type: in vivo; set-up: key: 0, negative; 1+, equivocal; 2+, weak; 3+, moderate; 4+, intense; conditions: kidney allograft, at the time of rejection
Source text: Immunohistochemistry Tissue samples embedded in Optimum Cutting Temperature (O.C.T.) gel (Skura Finetek, Torrance, Calif.) were sectioned and stained for CD4^+, CD8^+ and Mac-1^+ infiltrating cells and for IgG, IgM, C3 and C5 deposition using an Elite Vectastain ABC kit (Vector Laboratories Inc., Burlingame, Calif.). Primary biotinylated antibodies included anti-CD4 (YTS 191.1.2, Cedarlane Laboratories Ltd., Hornby, Ontario, Canada), anti-CD8 (53-6.7, BD Biosciences, Franklin Lakes, N.J.) and anti-Mac-1 (Cedarlane). Intragraft IgG and IgM deposition was detected using biotinylated goat anti-mouse-IgG and goat anti-mouse-IgM (Cedarlane). Complement deposition was detected following serial incubation with goat anti-mouse C3 or anti-mouse C5 polyclonal Abs (Quidel, San Diego, Calif.), biotinylated rabbit anti-goat IgG (Vector Laboratories), and HRP-conjugated-streptavidin (Zymed Laboratories, South San Francisco, Calif.). Negative controls were performed by omitting the primary antibodies. The immunostaining was scored in five high-power fields of each section using tissue samples from five animals per experimental group. Immunoreactivity was graded from 0 to 4+ according to staining intensity as follows: 0, negative; 1+, equivocal; 2+, weak; 3+, moderate; and 4+, very intensive staining.

[9] = tested on: terminal complement activity; assay: Complement hemolytic assay of recipient mouse sera (kidney model); assay type: in vivo; conditions: POD7, presensitized kidney recipients, FIG. 12
Description: Complement Hemolytic Assay Terminal complement activity in recipient mouse sera was determined by standard methods to assess the ability of sera to lyse chicken erythrocytes presensitized with erythrocyte-specific antibodies as previously described (Wang et al., 1999).

[10] = tested on: circulating anti-donor IgG and IgM antibodies; assay: Flow cytometry of circulating anti-donor antibodies (kidney model); assay type: in vivo, mouse
Description: Flow Cytometry Circulating anti-donor specific IgG and IgM antibodies were evaluated in recipient sera by flow cytometry. Briefly, C3H mouse splenocytes were isolated and incubated at 37° C. for 30 minutes with serum samples obtained at the indicated timepoints from mice from the various treatment groups. To stain for total IgG or specific antibody subclasses, the washed cells were incubated with FITC-conjugated goat anti-mouse antibodies specific for the Fc portion of mouse IgG, mouse IgG1, mouse IgG2a, mouse IgG2b or mouse IgG3 (all from (CALTAG Laboratories, Burlingame, Calif.) or with a phycoerythrin-conjugated goat antibody specific for mouse IgM (Jackson ImmunoResearch Laboratories, West Grove, Pa.) for 1 hour at 4° C., washed and analyzed on a FACScan flow cytometer (Becton Dickinson, Mountain View, Calif.) (Collins et al., 1999; Pratt et al., 1996). The results are expressed as mean channel fluorescence intensity as a measure of the level of each anti-donor isotype in the samples.

[11] = tested on: Bcl-2 and Bcl-xl proteins; assay: Western blot of kidney grafts; assay type: in vivo, mouse; conditions: POD100 (accommodated) or rejected grafts, FIG. 14
Source text: Western Blot Analysis Frozen kidney samples were sonicated, separated by electrophoresis and transferred to polyvinylidene difluoride (PVDF; Invitrogen) membranes. Intragraft expression of Bcl-2 and Bcl-XS/L was detected using the polyclonal sera N-19 and M-125, respectively (Santa Cruz Biotechnology, Inc.). Polyclonal anti-calsequestrin (Calbiochem) served as a sample loading control (Kobayashi et al., 1999). Antibody binding was detected by horseradish-peroxidase-conjugated goat anti-rabbit IgG and enhanced chemiluminescence development (Roche Laboratories) (Arp et al., 1996).

[12] = tested on: cardiac allograft in presensitized rats; conditions: cyclosporin A 10 mg/kg/day i.m., sCR1 15 mg/kg single i.v. bolus; cited from earlier work

For `O=P1(N(CCCl)CCCl)NCCCO1` (centres unmarked) [CyP, cyclophosphamide], the “heart graft survival (time to rejection)” value [1] was 3.3 ± 0.5 days, the “C3 immunoperoxidase staining grade” value [2] was 3+ and the “C5 immunoperoxidase staining grade” value [2] was 3+. For the same molecule, the “CD4 immunoperoxidase staining grade” value [2] was 1+, the “CD8 immunoperoxidase staining grade” value [2] was 1+ and the “IgG immunoperoxidase staining grade” value [2] was 3+. The “IgM immunoperoxidase staining grade” value [2] was 1+, the “Mac-1 immunoperoxidase staining grade” value [2] was 3+ and the “terminal complement activity (lysis of antibody presensitized chicken erythrocytes by recipient sera)” value [3] was “no effect”. The “circulating anti-donor IgG levels” value [4] was “partially down-regulated”, the “Mean survival time” value [5] was 3.3 ± 0.5 days and the “Hemo (hemorrhage) median score” value [6] was 2.0. For the same molecule, the “Infar (infarction) median score” value [6] was 4.0, the “Lymph (lymphocyte infiltration) median score” value [6] was 0.0 and the “Throm (thrombosis) median score” value [6] was 3.0. The “Vasc (vasculitis) median score” value [6] was 2.0 and the nephrotoxicity [7] was “significant nephrotoxicity”.
For `C[C@@H](N)CCNCCCCNC(=O)OCC(=O)NCCCCCCNC(=N)N` [LF, LF15-0195], the nephrotoxicity [7] was “not associated with nephrotoxicity”, the “kidney graft survival (time to rejection)” value ([7]; presensitized recipients, FIG. 11A) was 6.0 ± 1.0 days and the C3 immunoperoxidase staining [8] was 3+. The C5 immunoperoxidase staining [8] was 3+, the IgG immunoperoxidase staining [8] was 3+ and the IgM immunoperoxidase staining [8] was 1+. The Mac-1 immunoperoxidase staining [8] was 4+, the “terminal/serum complement activity (in vitro serum hemolytic assay)” value [9] was “no inhibitory effect” and the “circulating anti-donor IgG levels” value ([10]; kidney recipients at time of rejection, triple-therapy POD 100, FIG. 13A) was “partially reduced”. The “predominant anti-donor IgG subclass” value ([10]; presensitized kidney recipients, FIG. 13B) was “IgG1, IgG2a and IgG3” and the “expression of Bcl-2 and Bcl-xl proteins in kidney grafts” value [11] was “undetectable”.
In the case of “sCR1: soluble complement receptor 1, binds complements C3b and C4b”, the “average time of graft rejection” value [12] is given as 44 days.
